This note sets out measurements from ChEMBL document CHEMBL4373699, “Structure-Guided Discovery of a Selective Mcl-1 Inhibitor with Cellular Activity” (J Med Chem, 2019).

The structures appear in SMILES notation.

The target in experiment [1] is T1, Induced myeloid leukemia cell differentiation protein Mcl-1 (Homo sapiens, UniProt Q07820). Put plainly: biochemical.
The target in experiment [2] is T2, Apoptosis regulator Bcl-2 (Homo sapiens, UniProt P10415). The experiment can be described thus: biochemical.
T2 sequence (P10415 whole entry): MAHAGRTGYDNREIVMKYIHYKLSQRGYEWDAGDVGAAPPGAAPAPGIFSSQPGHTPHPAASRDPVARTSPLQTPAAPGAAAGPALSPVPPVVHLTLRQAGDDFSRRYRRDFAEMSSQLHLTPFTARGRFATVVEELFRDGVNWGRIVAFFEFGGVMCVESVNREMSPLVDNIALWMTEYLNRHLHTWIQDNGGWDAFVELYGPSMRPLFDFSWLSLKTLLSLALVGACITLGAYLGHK
The target in experiment [3] is T3, Bcl-2-like protein 1 (Homo sapiens, UniProt Q07817). The experiment can be described thus: Inhibition of Bcl-XL (unknown origin) by fluorescence polarization assay. A general note: Fluorescence polarisation rises when a labelled molecule tumbles more slowly, as on binding a larger partner.
T3 sequence (Q07817 whole entry): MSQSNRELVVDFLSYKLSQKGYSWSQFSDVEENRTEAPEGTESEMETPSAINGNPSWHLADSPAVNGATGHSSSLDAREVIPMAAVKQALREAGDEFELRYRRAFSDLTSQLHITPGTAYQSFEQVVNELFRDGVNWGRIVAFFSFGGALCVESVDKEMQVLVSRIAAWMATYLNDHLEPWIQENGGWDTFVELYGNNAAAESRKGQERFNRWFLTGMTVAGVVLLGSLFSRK
Experiment [4] concerns the target T1, Induced myeloid leukemia cell differentiation protein Mcl-1. Put plainly: biochemical. This is another data set of the same source.
Description: Binding affinity to TEV-fused His-tagged human Mcl-1 expressed in Escherichia coliBL21(DE3) pLysS cells by Isothermal Titration Calorimetry
Experiment [5] concerns the target T2, Apoptosis regulator Bcl-2. The experiment can be described thus: Displacement of N-terminal fluorescein labelled Puma-BH3 peptide from human N-terminal thrombin cleavage site-fused/His6-tagged Bcl-2 expressed in Escherichia coliBL21(DE3) pLysS cells at 10 uM by fluorescence polarization assay relative to control.
Experiment [6] has as its target T3, Bcl-2-like protein 1. Put plainly: Inhibition of Bcl-XL (unknown origin) at 10 uM by fluorescence polarization assay relative to control.
For experiment [7], the target named is T3, Bcl-2-like protein 1. The experiment can be described thus: Inhibition of Bcl-XL (unknown origin) at 0.5 mM by fluorescence polarization assay relative to control.

T1 sequence (Q07820 whole entry): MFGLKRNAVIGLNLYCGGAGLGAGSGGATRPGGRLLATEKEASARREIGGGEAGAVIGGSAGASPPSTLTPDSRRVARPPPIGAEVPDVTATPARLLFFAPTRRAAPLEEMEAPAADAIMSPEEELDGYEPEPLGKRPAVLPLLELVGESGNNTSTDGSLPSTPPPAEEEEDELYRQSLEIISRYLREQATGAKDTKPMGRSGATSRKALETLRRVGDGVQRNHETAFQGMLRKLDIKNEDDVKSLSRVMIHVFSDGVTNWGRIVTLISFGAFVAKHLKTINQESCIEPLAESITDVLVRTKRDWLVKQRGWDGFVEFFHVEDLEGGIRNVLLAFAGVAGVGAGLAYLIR

The term Ki denotes the equilibrium dissociation constant of an inhibitor or competing ligand from its target. Compound `CCc1sc2ncnc(O[C@H](C)C(=O)O)c2c1-c1ccccc1C` (stereo in doubt; 7e) came in with a Ki in experiment [1] of 15 µM.

For `CCc1sc2ncnc(N[C@@H](Cc3ccccc3)C(=O)O)c2c1-c1cccc(O)c1`, the Ki in experiment [1] turned out to be 58 µM.

On to `CCc1sc2ncnc(N[C@H](Cc3ccccc3)C(=O)O)c2c1-c1ccc(OCCN2CCN(C)CC2)c(Cl)c1C` (stereo in doubt; 17b), for which the Ki in experiment [1] is 170 µM. Compared with the last compound, the Ki is about 2.9-fold higher.

Take `CCc1sc2ncnc(O[C@H](Cc3ccccc3)C(=O)O)c2c1-c1ccccc1C` (stereo in doubt; 9d) [listing 1 of 2 here]: affinity in experiment [1] was put at a Ki of 0.89 µM.

On to `CCc1sc2ncnc(O[C@H](C)C(=O)O)c2c1-c1ccc2ccccc2c1`, for which affinity in experiment [1] was put at a Ki of 6 µM.

Compound `CCc1sc2ncnc(N[C@H](C)C(=O)O)c2c1-c1ccc2ccccc2c1` yielded a Ki in experiment [1] of 110 µM.

On to `CCc1sc2ncnc(N[C@@H](Cc3ccccc3)C(=O)O)c2c1-c1cccc(Oc2ccc(F)cc2)c1`, for which the figures for the inhibition constant Ki (in experiment [2]; in experiment [1]; at Bcl-2-like protein 1 [3]) were 24 µM, 77 µM and 18 µM, respectively.

As for `CCc1sc2ncnc(N[C@@H](C)C(=O)O)c2c1-c1ccc(SC)cc1`, the inhibition constant Ki in experiment [2] was 359 µM; in experiment [1], 44 µM; at Bcl-2-like protein 1 [3], 216 µM.

One may read the Kd as the constant that tells how readily two partners part at equilibrium. The compound `CCc1sc2ncnc(N[C@H](Cc3ccccc3OCCN3CCN(C)CC3)C(=O)O)c2c1-c1cccc(Cl)c1C` displayed a Kd in experiment [4] of 0.36 µM. In experiment [1], this compound came in with a Ki of 2 µM.

Consider `O=C(O)[C@@H](Cc1ccccc1)Nc1ncnc2sc(-c3ccccc3)c(-c3cccc(O)c3)c12`, for which the Ki in experiment [2] was determined as 21 µM; in experiment [1], 24 µM.

For `CCc1sc2ncnc(O[C@H](Cc3ccccc3)C(=O)O)c2c1-c1cccc(Cl)c1C`, the inhibition constant Ki in experiment [2] was 36 µM; in experiment [1], 0.81 µM.

Consider `CCc1sc2ncnc(N[C@H](C)C(=O)O)c2c1-c1ccccc1OCc1ccccc1`, for which the affinity in experiment [1], expressed as Ki, was 24 µM.

Regarding `CCc1sc2ncnc(N[C@H](C(=O)O)c3ccccc3)c2c1-c1cccc(O)c1`, the Ki in experiment [2] was 269 µM; in experiment [1], 27 µM; at Bcl-2-like protein 1 [3], 107 µM.

`CCc1sc2ncnc(N[C@H](Cc3ccccc3OC)C(=O)O)c2c1-c1cccc(Cl)c1C` gave a dissociation constant (Kd) in experiment [4] of 0.024 µM. For the same compound, affinity in experiment [1] was put at a Ki of 0.26 µM.

On to `C[C@@H](Nc1ncnc2sc(-c3ccccc3)c(-c3cccc(O)c3)c12)C(=O)O`, for which the Ki is 49 µM in experiment [2], 27 µM in experiment [1] and 42 µM on Bcl-2-like protein 1 [3].

As for `CCc1sc2ncnc(N[C@H](Cc3ccccc3)C(=O)O)c2c1-c1cccc(O)c1`, affinity in experiment [1] was put at a Ki of 10 µM. In other words, the double-digit micromolar range.

In the case of `CCNS(=O)(=O)c1cccc(-c2nc(N[C@H](C)C(=O)O)c3c(-c4cccc(Oc5ccc(F)cc5)c4)c(CC)sc3n2)c1`, the Ki in experiment [2] was determined as 1.3 µM; in experiment [1] it was 50 µM; on Bcl-2-like protein 1 [3], 39 µM.

For `CCc1sc2ncnc(N[C@H](Cc3ccccc3)C(=O)O)c2c1-c1cccc2[nH]ccc12` (stereo in doubt; 8a), the Ki in experiment [1] was 1.6 µM; at Bcl-2-like protein 1 [3], 135 µM.

As for `CCc1sc2ncnc(O[C@H](Cc3ccccc3)C(=O)O)c2c1-c1ccccc1C` (stereo in doubt; 9c), the affinity in experiment [1], expressed as Ki, was 3.4 µM.

For the compound `CCc1sc2ncnc(O[C@H](C)C(=O)O)c2c1-c1ccc(C(C)C)cc1`, the affinity in experiment [1], expressed as Ki, was 8.1 µM.

`CCc1sc2ncnc(O[C@H](Cc3ccccc3)C(=O)O)c2c1-c1cc2cc(CN(C)C)oc2c(Cl)c1C` returned a Ki in experiment [1] of 0.076 µM.

Consider `CCc1sc2ncnc(N[C@H](Cc3ccccc3)C(=O)O)c2c1-c1cccc(Oc2ccc(F)cc2)c1`, for which the inhibitory constant (Ki) came out at 24 µM in experiment [2], 51 µM in experiment [1] and 24 µM on Bcl-2-like protein 1 [3].

In the case of `CCc1sc2ncnc(O[C@H](Cc3ccccc3)C(=O)O)c2c1-c1cccc(Br)c1C` (stereo in doubt; 10a), the inhibitory constant (Ki) in experiment [1] came out at 5.3 µM. In other words, the single-digit micromolar range.

In experiment [1], `CCc1sc2ncnc(N[C@H](Cc3ccccc3)C(=O)O)c2c1-c1cccc2[nH]ccc12` (stereo in doubt; 8b) displayed an inhibition constant (Ki) of 5.7 µM.

Consider `CCc1sc2ncnc(NC(CO)C(=O)O)c2c1-c1cccc(Oc2ccc(F)cc2)c1` (racemic), for which the figures for the inhibition constant (Ki) (in experiment [1]; at Bcl-2-like protein 1 [3]) were 61 µM and 87 µM, respectively.

Consider `CCc1sc2ncnc(N[C@H](C)C(=O)O)c2c1-c1cccc(Oc2ccc(F)cc2)c1`, for which the figures for the Ki in experiment [2] and in experiment [1] were 6.1 µM and 19 µM, respectively.

With `CCc1sc2ncnc(N[C@H](C)C(=O)O)c2c1-c1ccccc1C`, the Ki in experiment [1] was 100 µM.

`CCc1sc2ncnc(O[C@H](C)C(=O)O)c2c1-c1ccccc1C` (stereo in doubt; 7d): in experiment [1], the affinity corresponds to a Ki of 18 µM.

With `CCc1sc2ncnc(N[C@@H](C(=O)O)c3ccccc3)c2c1-c1cccc(O)c1`, the results for the Ki (in experiment [2]; in experiment [1]; on Bcl-2-like protein 1 [3]) were 470 µM, 7.7 µM and 319 µM, respectively.

Turning to `CCc1sc2nc(-c3cccnc3)nc(N[C@H](C)C(=O)O)c2c1-c1cccc(Oc2ccc(F)cc2)c1`, the Ki in experiment [2] worked out at 4.1 µM; in experiment [1], 8.4 µM; at Bcl-2-like protein 1 [3], 18 µM.

The inhibition is the percentage by which the read-out fell short of the control. For the compound `CCc1sc2ncnc(O[C@H](Cc3ccccc3)C(=O)O)c2c1-c1ccccc1C` (stereo in doubt; 9d) [listing 2 of 2 here], the figures for the inhibition (in experiment [5]; on Bcl-2-like protein 1 [6]) were 5% and 2%, respectively.

For `CCc1sc2ncnc(N[C@@H](C)C(=O)O)c2c1-c1cccc(Oc2ccc(F)cc2)c1`, the Ki in experiment [2] amounted to 98 µM; in experiment [1] it was 130 µM; at Bcl-2-like protein 1 [3] it was 33 µM.

Take `CCc1sc2ncnc(O[C@H](Cc3ccccc3)C(=O)O)c2c1-c1cccc2[nH]ccc12` (stereo in doubt; 9a): affinity in experiment [1] was put at a Ki of 0.49 µM.

As for `CCc1sc2ncnc(N[C@H](C)C(=O)O)c2c1-c1cccc(O)c1`, the Ki was 5 µM in experiment [2] and 45 µM in experiment [1].

Regarding `CCc1sc2ncnc(O[C@H](Cc3ccccc3)C(=O)O)c2c1-c1ccc(OCC(=O)N2CCN(C)CC2)c(Cl)c1C`, the affinity in experiment [1], expressed as Ki, was 0.021 µM.

For `C[C@@H](Nc1ncnc2scc(-c3cccc(O)c3)c12)C(=O)O`, the values for the inhibition constant Ki (in experiment [1]; at Bcl-2-like protein 1 [3]) were 59 µM and 287 µM, respectively.

Consider `CCc1sc2ncnc(O[C@H](Cc3ccccc3)C(=O)O)c2c1-c1cccc2[nH]ccc12` (stereo in doubt; 9b) [listing 1 of 2 here], for which the Ki in experiment [1] was 0.64 µM.

In experiment [1], `CCc1sc2ncnc(O[C@H](Cc3ccccc3)C(=O)O)c2c1-c1cc(CN2CCN(C)CC2)c(O)c(Cl)c1C` yielded a Ki of 0.032 µM.

In the case of `CCc1sc2ncnc(NC(C(=O)O)c3ccccc3)c2c1-c1cccc(Oc2ccc(F)cc2)c1` (racemic), the values for the inhibitory constant (Ki) (in experiment [2]; in experiment [1]; on Bcl-2-like protein 1 [3]) were 13 µM, 68 µM and 15 µM, respectively.

With `CCc1sc2ncnc(N[C@@H](C)C(=O)O)c2c1-c1cccc(C(F)(F)F)c1`, the Ki in experiment [2] is 437 µM; in experiment [1], 21 µM.

Take `CCc1sc2ncnc(N[C@@H](C)C(=O)O)c2c1-c1ccccc1`: the Ki in experiment [2] worked out at 418 µM; in experiment [1], 110 µM.

`CCc1sc2ncnc(O[C@H](Cc3ccccc3)C(=O)O)c2c1-c1cccc2[nH]ccc12` (stereo in doubt; 9b) [listing 2 of 2 here] returned an inhibition in experiment [5] of 11%.

Usually IC50 stands for the concentration that inhibits the measured activity by half. With `CCc1sc2ncnc(N[C@@H](C)C(=O)O)c2c1CC`, in experiment [2], the IC50 was 164 µM and the affinity corresponds to a Ki of 74 µM. The compound further displayed a Ki in experiment [1] of 50 µM.

In experiment [1], `CCc1sc2ncnc(O[C@H](Cc3ccccc3)C(=O)O)c2c1-c1cccc(Br)c1C` (stereo in doubt; 10b) showed a Ki of 0.33 µM. In other words, the sub-micromolar range.

Take `CCc1sc2nc(S(C)(=O)=O)nc(N[C@H](C)C(=O)O)c2c1-c1cccc(Oc2ccc(F)cc2)c1`: the Ki in experiment [2] is 51 µM; in experiment [1], 44 µM; on Bcl-2-like protein 1 [3], 26 µM.

Compound `C=C(C)c1sc2ncnc(N[C@H](Cc3ccccc3)C(=O)O)c2c1-c1cccc(Cl)c1C` had an inhibition against Bcl-2-like protein 1 [7] of 35%. The Ki in experiment [2] is 5.4 µM; in experiment [1] it was 19 µM.

For the compound `CCc1sc2ncnc(N[C@H](CC3CCCCC3)C(=O)O)c2c1-c1cccc(Oc2ccc(F)cc2)c1`, the figures for the Ki (in experiment [2]; in experiment [1]; on Bcl-2-like protein 1 [3]) were 8.1 µM, 53 µM and 17 µM, respectively.
